Results on six molecules are retold here after paper PMC9318819 (Viruses, 2022).

Read-outs that look alike come from different tables or passages of the source. Bounds are passed on as bounds.

Data set [1] relates to HIV-1 (PBL286 (02ET_14), subtype C, Ethiopian isolate). Briefly: Anti-HIV screening in PBMC (Southern Research Institute). The class given is cell-based. The conditions noted are these: for EC50: read-out: Antiviral Activity EC50; for EC90: read-out: Antiviral Activity EC90; for inhibition at 0.08 µg/mL: read-out: inhibition of HIV replication in PBMC.
The next data set can be described thus: in vitro. To be noted: human.
The test system of another data set is Jurkat cells. Briefly: T cell activation, CD69 expression by flow cytometry. The class given is cell-based. The conditions noted are these: 24 h. On the technique in general: Flow cytometry measures light scatter and fluorescence of single cells or particles in a stream.
A further data set deals with HeLa-SXR5 cell line. Briefly: Cytotoxicity under deCIPhR cell culture conditions (Alamar Blue, four days). To be noted: four days of incubation, any concentration (0.08 to 5 μg/mL). On the technique in general: Resazurin is reduced to fluorescent resorufin, in cell work by metabolically active cells.
The subject of data set [2] is HIV-1 in primary CD4+ T cells from cART-suppressed donors. Briefly: Ex vivo latency reversal, supernatant viral RNA by qRT-PCR. The class given is cell-based. The conditions noted are these: 24 h, 3 donors. (Quantitative PCR measures a nucleic acid by following its amplification.)
Data set [3] is described as follows: Cell viability by resazurin dye. It is filed as cell-based. The conditions noted are these: human, Jurkat T cells (Clone E6-1), parental, lacking HIV provirus, read-out: viability relative to 0.1% DMSO.
Data set [4] is described as follows: PBMC viability / cytotoxicity (MTS dye). To be noted: human.
Data set [5] can be described thus: Primary cell viability by trypan blue counting. The class given is cell-based. To be noted: human, 3 donors, read-out: viability of primary CD4+ T cells.
The test system of data set [6] is HIV provirus expression in J-Lat 10.6 T cells. Briefly: In vitro HIV latency reversal, GFP expression by flow cytometry. It is filed as cell-based. The conditions noted are these: 24 h.
Data set [7] concerns CXCR4-tropic HIV isolate NL4-3. Briefly: deCIPhR in vitro anti-HIV replication assay (β-galactosidase, LTR-driven LacZ). The class given is cell-based.
In a further data set the test system is J-Lat 10.6 cells. Briefly: Effect of PKC inhibitors Gö 6983 and enzastaurin on LRA-induced latency reversal. The class given is cell-based. The conditions noted are these: 1 μM Gö 6983.
Setting [8] is: Human immunodeficiency virus 1, PBMC, subtype C virus.
Setting [9] is: Human immunodeficiency virus 1, PBMC.

Regarding `Cc1cn([C@H]2C[C@H](N=[N+]=[N-])[C@@H](CO)O2)c(=O)[nH]c1=O` [AZT, azidothymidine, reference compound], in data set [1] (setting [8]), the 50% effective concentration (EC50) was 0.007 µM and the concentration for an effect of 90% (EC90) was found to be 0.05 µM. Moreover, the “Selectivity Index CC50/IC50” value in data set [1] (PBMC) is more than 142. This molecule registered a CC50 in the data set “in vitro” of more than 1 µM.

`C=C(C)C12OC3(/C=C/C=C/CCC)OC1C1C4OC4(CO)C(O)C4(O)C(=O)C(C)=CC4C1(O3)C(C)C2OC(=O)c1ccccc1` (stereo not shown) [Compound 1, yuanhuacine A] showed a CD69-positive cells with Jurkat cells (0.5 μM) of 75.4 ± 2.2%. Also, the “cytotoxicity (Alamar Blue)” value with HeLa-SXR5 cell line was “no evidence of cytotoxicity at any concentration”. In [2] (1.5 μM), the “average fold increase in viral RNA” value is recorded as 10.8 fold and the “average supernatant viral RNA” value is 352.5 ± 430.4 copies/mL. In data set [3], the viability at 24 h, 1.5 µM was 51.2 ± 11.2%. Moreover, the CC50 in data set [4] is more than 15 µM. In data set [1] (setting [9]), the concentration for a half-maximal effect (EC50) was determined as 0.03 µM, the EC90 worked out at 0.09 µM and the inhibition at 0.08 µg/mL is more than 80%. For the same molecule, the “Selectivity Index CC50/IC50” value in data set [1] (PBMC) is on record as more than 500. Further, the viability at 24 h, 1.5 µM in [5] came out at 96.4 ± 32.2%. For the same molecule, the “GFP expression (latency reversal), % of live-gated cells” value (“GFP expression (latency reversal), %” for short) in data set [6] (0.15 μM) is recorded as 65.5 ± 6.3%. Also, the “inhibition of HIV replication across all test concentrations” value in [7] (test concentrations 0.08 to 5 μg/mL) is on record as 65–80%.

`C=C(C)C12OC3(/C=C/C=C/CCCCC)OC1C1C4OC4(CO)C(O)C4(O)C(=O)C(C)=CC4C1(O3)C(C)C2OC(=O)c1ccccc1` (stereo not shown) [Compound 2, yuanhuacine]: the CD69-positive cells in the data set with Jurkat cells (0.5 μM) is on record as 74.5 ± 1.3%. The “average fold increase in viral RNA” value in data set [2] (1.5 μM) was 9.1 fold. In addition, the “average supernatant viral RNA” value in [2] (1.5 μM) is 297 ± 267 copies/mL. The figures for the viability at 24 h, 1.5 µM in [3] and in data set [5] were 58.5 ± 15.9% and 79.6 ± 41.5%, respectively. Also, the inhibition at 0.08 µg/mL in data set [1] (setting [9]) is more than 80%. For the same molecule, in data set [6] (0.15 μM), the “GFP expression (latency reversal), %” value worked out at 58.2 ± 4.7%.

Take `Cc1[nH]c2ccccc2c1CCNCc1ccc(/C=C/C(=O)NO)cc1` [Panobinostat, reference compound]: in the data set with J-Lat 10.6 cells (LRA at 0.1 μM), the “effect of Gö 6983 on latency reversal” value is given as “unaffected”. Further, the CD69-positive cells in the data set with Jurkat cells (0.1 μM) amounted to 1.5 ± 1.3%.

With `O=C1Nc2ccc(Cl)cc2[C@@](C#CC2CC2)(C(F)(F)F)O1` [efavirenz], the inhibition at 0.43 µM in data set [7] (Human immunodeficiency virus 1, NL43, 430 nM) was found to be 43.9 ± 41.9%. In data set [7] (Human immunodeficiency virus 1, NL43, 930 nM), the inhibition at 0.93 µM amounted to 111 ± 22.1%. In data set [7] (Human immunodeficiency virus 1, NL43, 2000 nM), the inhibition at 2 µM is 107 ± 24.1%. The inhibition at 4.3 µM in data set [7] (Human immunodeficiency virus 1, NL43, 4300 nM) came out at 100%.

On to `CC(=O)O[C@@]12C[C@@H](C)[C@@]3(O)[C@@H](C=C(CO)C[C@]4(O)C(=O)C(C)=C[C@@H]34)[C@@H]1C2(C)C` [prostratin, reference compound], for which the “reduction in latency reversal by pan-PKC inhibitor Gö 6983” value with J-Lat 10.6 cells (LRA at 2.5 μM) is 74.7 ± 17.3%. The same molecule registered a CD69-positive cells in the data set on Jurkat cells (2.5 μM) of 73.2 ± 1.3%. In data set [2] (10 μM), the “average fold increase in viral RNA” value is 23.2 fold and the “average supernatant viral RNA” value is reported as 755.5 ± 1144.2 copies/mL. For the same molecule, the viability at 24 h, 0.5 µM in [3] (0.5 μM) worked out at 56 ± 10%. For the same molecule, the viability at 24 h, 10 µM in [5] (10 μM) was determined as 65.9 ± 12.4%. In data set [6] (2.5 μM), the “GFP expression (latency reversal), %” value worked out at 66.0 ± 5.7%.

What is called EC50 is the midpoint of the concentration-response curve. As a reminder, the EC90 is the point of the concentration-response curve where the effect stands at 90%. Broadly, the viability is a per cent measure of how many cells are alive, often set against a control. As a reminder, the inhibition is the change of the read-out against control, counted positive when it falls.
